The subject of this assay is phenyl-p-benzoquinone-induced writhing. As to the kind of experiment: mouse phenyl-p-benzoquinone-induced writhing test (analgesic activity). The format is in vivo. Particulars: s.c.; 60 minutes; male CD-1 mice; dose which decreased writhing by ≥50% of control mean in 50% of the mice. As for the experimental part: This test is a modification of the procedure described by L. C. Hendershot and J. Forsaith, in J. PHARMACOL. EXP. THER., 125:237(1959).
Details of the test are as follows: Groups of 10 male CD-1 mice (Charles River) weighing 18-25 g. are pretreated subcutaneously (s.c.) or intragastrically (i.g.) with the vehicle control or the compound of interest in a volume of 10 ml/kg. Phenyl-p-benzoquinone (PBQ), 2.5 mg/kg is administered intraperitoneally (i.p.) 30 or 60 minutes later as a 0.025% solution in 5% ethanol. Starting 5 minutes after the PBQ challenge, each mouse is observed for a 10 minute period during which the number of writhes are counted. A "writhe" consists of a combination or sequence of arching the back, pelvic rotation, and hind limb extension. Significant analgesia is assumed when an animal writhing frequency is ≤50% of the daily control group mean. Estimates of the ED50 defined as the dose which decreased writhing by ≥50% of the control group mean in 50% of the mice are determined using the method of J. T. Litchfield and F. Wilcoxon, J. PHARMCOL. EXP. THER., 96:99(1949).

On to `CN1CC[C@]23c4c5ccc(O)c4O[C@H]2[C@@H](O)C=C[C@H]3[C@H]1C5` [morphine], for which the “ED50 (95% confidence limits)” value is 0.1 mpk.

(Values after patent US4273704A, “N-Adamantane-substituted tetrapeptide amides” (G. D. Searle & Co., priority 1979, dated 1981).)
